Experimental data taken from patent US8524978B2, “Composition for production of plant body having improved sugar content, and use thereof” (Japan Science and Technology Agency, priority 2007, dated 2013).
Entries after “also recorded” stand apart in the source; their conditions may differ.

Tests used:
Type in all cases: in vivo
[1] = system: Lycopersicum esculentum; assay: Cultivation of Lycopersicum esculentum with GSSG or GSH, sensory tests of fruit (Example 1); settings: 50 mL of 0.5 mM at root twice a week, 60 days
From the text: In the present example, Lycopersicum esculentum was cultivated with use of GSSG or GSH. Details of cultivation are described below.
First, Lycopersicum esculentum seedlings (TAKII & CO. Ltd., product name: Osama tomato reika) were transplanted into a hydroponic culture pot ( 1/2000 a). In the hidroponic culture pot, 6 L of vermiculite (ASAHI INDUSTRIES Co., LTD.), 3 L of KUREHA horticultural soil (KUREHA CORPORATION), and 3 L of vermiculite were layered as a lower, middle, and upper layers, respectively.
During the cultivation of Lycopersicum esculentum, 50 mL of 0.5 mM GSSG or 0.5 mM GSH (adjusted with 0.1N NaOH to be at pH 7) was applied twice a week at a root per plant. The Lycopersicum esculentum plants were grown for 60 days without being subjected to bud removal. Last 10 days was used as a harvest period for harvesting fruit of the plants. For comparison, a Lycopersicum esculentum plant was grown under the same condition, except that GSSG and GSH were not applied. To the plants of any condition, 3 g of Kumiai phosphorate ammonium nitrate potassium S-604 (Chisso Asahi Fertilizer Co., Ltd.) was applied as an additional fertilizer once in 2 weeks.
Next, the fruit harvested was subjected to sensory tests of sugar content and the like. As a result, it was determined that fruit of the plant applied with GSSG increased in sugar content compared to that of the plant not applied with GSSG or GSH. Further, it was determined that the plant applied with GSSG increased in number of fruit. It was determined that fruit of the plant applied with GSH increased in sugar content and acidity.

[2] = system: Lycopersicum esculentum; assay: Sugar content determination of Lycopersicum esculentum fruit with refractometer (Example 2); settings: 0.5 mM applied as in Example 1; compared to Cont and Cont2 Sunny conditions; ANOVA 5%
From the text: Cultivated were Lycopersicum esculentum plants to which GSSG or GSH was applied by the method described in Example 1. Then, obtained fruit of the plants was subjected to sugar content determination using “Pocket” Refractometer APAL-1 (ATAGO CO., LTD.).
For comparison, Lycopersicum esculentum plants were cultivated under two types of conditions (referred to as “Cont” and “Cont2 Sunny”). In the Cont condition, Lycopersicum esculentum plants were cultivated by the same method as in Example 1, except that GSSG and GSH were not applied. In the Cont2 Sunny condition, a Lycopersicum esculentum plant was not applied with GSSG or GSH and was independently cultivated at a site sufficiently irradiated with sunlight so that illuminance on the Lycopersicum esculentum plant becomes 100%. In the Cont condition and a condition in which GSSG or GSH was applied, the plants were planted at intervals of 40 cm to 50 cm. In this case, a plant may intercept light irradiating another plant. Therefore, illuminance on such plants becomes less than 100%.
In the condition in which GSSG was applied, the condition in which GSH is applied, and the Cont condition, three Lycopersicum esculentum plants were cultivated, respectively. In the Cont2 Sunny condition, one Lycopersicum esculentum plant was cultivated. […]

[3] = system: Lycopersicum esculentum; assay: Change of sugar content over time after one application of GSH or GSSG (Example 6); settings: 50 mL of 0.5 mM once at root 90 days after sowing; fruit harvested day 0 to day 4
Experimental: In the present example, a sugar content of a plant was determined after a substance for regulating an oxidation-reduction state of a cell was applied to the plant. The substance for regulating an oxidation-reduction state of a cell was GSH or GSSG. As in the case of Example 1, Lycopersicum esculentum was used as the plant. Specifically, the following operations were carried out.
Ninety days after sowing of Lycopersicum esculentum seeds, Lycopersicum esculentum plants were subjected to a GSH or GSSG treatment. The Lycopersicum esculentum plants were cultivated by the same method as in Example 1 except for the GSH or GSSG treatment. The GSH or GSSG treatment was such that 50 mL of 0.5 mM GSSH or 0.5 mM GSH (adjusted with 0.1N NaOH to be at pH 7) was applied once at a root per plant. Then, fruit of the plants was harvested every day from the 0th day until the 4th day after application of GSH or GSSG, and subjected to sugar content determination. […] FIG. 3 is a graph showing a determination result of relation between sugar content and the number of days from an application day of GSH or GSSG. In FIG. 3, the vertical scale indicates sugar content (Brix, unit: %) and the horizontal scale indicates days from the application day. In FIG. 3, lines labeled with circles, triangles, and squares show results of the plants applied with GSH, GSSG, and no GSH and no GSSG, respectively. […]

[4] = system: Prunus avium (Napoleon); assay: Prunus avium leaf coating with GSSG, sensory test of fruit (Example 8); settings: leaf surface coated with 0.5 mM 4 weeks and 3 weeks before harvest
Experimental: In the present example, Prunus avium was cultivated. Specifically, 4 weeks and 3 weeks before an expected date of harvesting Prunus avium (Napoleon) fruit, a surface of a leaf on a branch having the fruit to be harvested was coated with 0.5 mM GSSG. The fruit was harvested on the expected date.
Next, the fruit harvested was subjected to a sensory test of sugar content. As a result, it was determined that the fruit applied with GSSG increased in sugar content and decreased in acidity. Further, it was determined that the fruit applied with GSSG increased in weight. Furthermore, the fruit obtained was subjected to sugar content determination using “Pocket” Refractometer APAL-1 (ATAGO CO., LTD.). For comparison, fruit applied with no GSSG was also subjected to the sugar content determination. […] In FIG. 5, the vertical scale indicates sugar content (Brix, unit: %).

[5] = system: Zea mays L. var. saccharata Sturt; assay: Cultivation of Zea mays L. var. saccharata Sturt with GSSG leaf spray, sensory test (Example 11)
From the text: In the present example, Zea mays L. var. saccharata Sturt was cultivated. First, a Zea mays L. var. saccharata Sturt seed (TAKII & CO. Ltd., product number: Canberra 86) was sown in vermiculite (ASAHI INDUSTRIES Co., LTD.). Two weeks after sowing, a Zea mays L. var. saccharata Sturt plant was transplanted to a hydroponic culture pot described in Example 1. To the plant, 3 g of Kumiai phosphorate ammonium nitrate potassium S-604 (Chisso Asahi Fertilizer Co., Ltd.) was applied as an additional fertilizer 4 weeks and 6 weeks after the sowing.
In the 5th, 6th, 7th, and 8th week after the sowing, 0.5 mM GSSG (dissolved in 0.1% Tween80 serving as a spreading agent) was sprayed onto a leaf surface. For comparison, a Zea mays L. var. saccharata Sturt plant was cultivated by the same method as in the present example, except that Tween80, but not GSSG, was applied, and fruit thereof was harvested.
Fruit was harvested 86 days after the sowing and subjected to a sensory test of sugar content. As a result, it was determined that fruit of the plant applied with GSSG increased in sugar content compared to that of the plant applied with no GSSG. Further, the fruit obtained was subjected to sugar content determination using “Pocket” Refractometer APAL-1 (ATAGO CO., LTD.). For comparison, the fruit of the plant applied with no GSSG was also subjected to the sugar content determination. […] In FIG. 8, the vertical scale indicates sugar content (Brix, unit: %).
It was also determined that the plant applied with GSSG increased in size and number of fruit. Further, it was determined that the fruit of the plant applied with GSSG was already able to be harvested 70 days after the sowing.

[6] = 0.5 mM in 0.1% Tween80 sprayed onto leaf surface in weeks 5-8

In the case of oxidized glutathione [GSSG], the number of fruit [1] is reported as “increased”, the “sugar content of fruit (sensory test)” value ([1]; compared to plant not applied with GSSG or GSH) is reported as “increased” and the “sugar content of fruit (Brix)” value [2] is reported as “significantly increased; also recorded: extremely high sugar content”. For the same substance, the “sugar content of fruit (Brix) after application” value [3] was “rapidly improve”, the “acidity of fruit (sensory test)” value [4] was “decreased” and the “sugar content of fruit (sensory test)” value [4] was “increased”. The weight of fruit [4] was “increased”, the number of fruit [5, 6] was “increased” and the size of fruit [5, 6] was “increased”. For the same substance, the “time at which fruit was already able to be harvested” value [5, 6] was 70 days after the sowing and the “sugar content of fruit (sensory test)” value ([5]; 0.5 mM in 0.1% Tween80 sprayed onto leaf surface in weeks 5-8 after sowing, harvest 86 days, vs Tween80 only) was “increased”.
